Measured values taken from US7541464B2, “7-azaindoles, pharmaceutical compositions and their therapeutic applications” (Sanofi-Aventis Deutschland GmbH, priority 2004, dated 2009).
Like-named read-outs stand apart in the source and are kept apart here. Each block holds one compound with its values, some of them ahead of it.

Tests used:
PPARdelta [1] = conditions: obese, insulin resistant rhesus monkeys; cited from earlier work
PPARdelta [2] = conditions: diabetic animal model; cited from earlier work
PPARdelta/PPARalpha [3] = conditions: rhesus and cynomolgus monkeys; cited from earlier work
PPARdelta/PPARalpha [4] = conditions: two weeks clinical trials in healthy volunteers; cited from earlier work
human PPARalpha = target: T1, human PPARalpha (Homo sapiens, UniProt Q07869); experiment: Cellular PPARalpha assay (HEK luciferase reporter cell line); assay type: cell-based; conditions: PPARalpha reporter cell line (HEK, GR-GAL4-humanPPARalpha-LBD)
T1 construct: amino acids S167-Y468; expressed in transfected cells; plasmid pcDNA3
T1 sequence (Q07869 167-468): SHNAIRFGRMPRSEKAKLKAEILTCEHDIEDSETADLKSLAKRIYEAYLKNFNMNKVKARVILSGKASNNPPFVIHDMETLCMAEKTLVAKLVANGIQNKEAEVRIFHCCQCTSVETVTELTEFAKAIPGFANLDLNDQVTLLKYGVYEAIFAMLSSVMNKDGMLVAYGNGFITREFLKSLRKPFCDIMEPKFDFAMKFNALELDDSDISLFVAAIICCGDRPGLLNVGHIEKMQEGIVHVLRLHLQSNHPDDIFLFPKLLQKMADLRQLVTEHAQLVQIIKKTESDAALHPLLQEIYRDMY
Experimental: Determination of EC50 Values of PPAR Agonists In the Cellular PPARalpha Assay
The potency of substances which bind to human PPARalpha and activate it in an agonistic manner is analyzed using a stably transfected HEK cell line (HEK=human embryo kidney) which is referred to here as PPARalpha reporter cell line. It contains two genetic elements, a luciferase reporter element (pdeltaM-GAL4-Luc-Zeo) and a PPARalpha fusion protein (GR-GAL4-humanPPARalpha-LBD) which mediates expression of the luciferase reporter element depending on a PPARalpha ligand. The stably and constitutively expressed fusion protein GR-GAL4-humanPPARalpha-LBD binds in the cell nucleus of the PPARalpha reporter cell line via the GAL4 protein portion to the GAL4 DNA binding motifs 5′-upstream of the luciferase reporter element which is stably integrated in the genome of the cell line. There is only weak expression of the luciferase reporter gene in the absence of a PPARalpha ligand if fafty acid-depleted fetal calf serum (cs-FCS) is used in the assay. PPARalpha ligands bind and activate the PPARalpha fusion protein and thereby stimulate the expression of the luciferase reporter gene. The luciferase which is formed can be detected by means of chemiluminescence via an appropriate substrate. […]
The activity of PPARalpha agonists is determined in a 3-day assay which is described below: […]

human PPARdelta = target: T2, human PPARdelta (Homo sapiens, UniProt Q03181); experiment: Cellular PPARdelta assay (HEK luciferase reporter cell line); assay type: cell-based; conditions: PPARdelta reporter cell line (HEK, GR-GAL4-humanPPARdelta-LBD)
T2 construct: amino acids S139-Y441; expressed in transfected cells; plasmid pcDNA3
T2 sequence (Q03181 139-441): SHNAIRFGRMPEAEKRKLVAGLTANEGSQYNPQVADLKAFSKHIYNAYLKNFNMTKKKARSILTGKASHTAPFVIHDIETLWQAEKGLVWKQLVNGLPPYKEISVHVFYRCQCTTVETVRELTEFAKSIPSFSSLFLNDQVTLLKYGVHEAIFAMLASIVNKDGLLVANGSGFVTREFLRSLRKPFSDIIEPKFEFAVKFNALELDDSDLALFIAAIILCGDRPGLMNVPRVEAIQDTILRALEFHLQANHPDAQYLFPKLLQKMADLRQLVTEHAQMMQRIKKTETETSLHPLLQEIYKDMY
Experimental: The potency of substances which bind to human PPARdelta and activate it in an agonistic manner is analyzed using a stably transfected HEK cell line (HEK=human embryo kidney) which is referred to here as PPARdelta reporter cell line. In analogy to the assay described for PPARalpha, the PPARdelta reporter cell line also contains two genetic elements, a luciferase reporter element (pdeltaM-GAL4-Luc-Zeo) and a PPARdelta fusion protein (GR-GAL4-humanPPARdelta-LBD) which mediates expression of the luciferase reporter element depending on a PPARdelta ligand. The stably and constitutively expressed fusion protein GR-GAL4-humanPPARdelta-LBD binds in the cell nucleus of the PPARdelta reporter cell line via the GAL4 protein portion to the GAL4 DNA binding motifs 5′-upstream of the luciferase reporter element which is stably integrated in the genome of the cell line. […] The luciferase which is formed can be detected by means of chemiluminescence via an appropriate substrate. […]
The activity of PPARdelta agonists is determined in a 3-day assay in exact analogy to the procedure already described for the PPARalpha reporter cell line except that the PPARdelta reporter cell line and a specific PPARdelta agonist was used as a standard to control test efficacy.

Compound: Cc1cc(SCc2sc(-c3ccc(C(F)(F)F)cc3)nc2C)ccc1OCC(=O)O [GW501516]
HDL-cholesterol (PPARdelta [1]): raises | plasma LDL-cholesterol (PPARdelta [1]): decreases | plasma insulin levels (PPARdelta [1]): decreases | plasma triglycerides (PPARdelta [1]): decreases

Compound: CCCc1c(OCCCOc2ccc(OCC(=O)O)cc2)ccc(C(C)=O)c1O [Example L-165041]
plasma cholesterol (PPARdelta [2]): raises plasma cholesterol

Compound: CCCc1c(OCCCSc2nnc(SCC(=O)O)s2)ccc(C(C)=O)c1O [YM-16638]
plasma lipids (PPARdelta/PPARalpha [3]): significantly lowers plasma lipids | plasma lipids (PPARdelta/PPARalpha [4]): acts in a similar manner

EC50 (human PPARalpha): 40 nM | EC50 (human PPARdelta): 470 nM
Compound: CCCCc1nc(-c2ccc(C(F)(F)F)cc2)sc1Cn1ccc2cc(OCC(=O)O)cnc21 [Example 1, {1-[4-Butyl-2-(4-trifluoromethyl-phenyl)-thiazol-5-ylmethyl]-1H-pyrrolo[2,3-b]pyridin-5-yloxy}-acetic acid]

EC50 (human PPARalpha): 320 nM | EC50 (human PPARdelta): 140 nM
Compound: CCCCc1nc(-c2ccc(C(F)(F)F)cc2)sc1Cn1ccc2c(CCC)c(OCC(=O)O)cnc21 [Example 2, {1-[4-Butyl-2-(4-trifluoromethyl-phenyl)-thiazol-5-ylmethyl]-4-propyl-1H-pyrrolo[2,3-b]pyridin-5-yloxy}-acetic acid]
